Laboratory results from ChEMBL document CHEMBL3885861, “Open TG-GATES”.

Organism: Rattus norvegicus
Experiment: Open TG-GATES - Regimen: Daily Repeat
Type: toxicity, organism-based, Sprague-Dawley
Design: regimen Daily Repeat, gender Male, age 6 weeks
Conditions: in vivo, po, 60 mg/kg, route gavage, dose level Low; for APTT / Bas / Eos / Fbg / Hb / Ht / Lym / MCH / MCHC / MCV / Mono / Neu / PT / Plat / RBC / Ret / WBC: tissue Blood; for KIDNEY_L / KIDNEY_R / KIDNEY_TOTAL: tissue Kidney; for LIVER: tissue Liver; for A/G / ALP / ALT / AST / BUN / CRE / Ca / Cl / DBIL / GLC / IP / K / LDH / Na / PL / RALB / TBIL / TC / TG / TP / gamma-GTP: tissue Plasma

CCOC(=O)[C@H](CCc1ccccc1)N[C@@H](C)C(=O)N1CCC[C@H]1C(=O)O
TERMINAL_BW (72 h, time 3 day): 243.2 g
APTT (72 h, time 3 day): 16.2 s
Bas (72 h, time 3 day): 0%
Eos (72 h, time 3 day): 0.8%
Fbg (72 h, time 3 day): 233.6 mg/dL
Hb (72 h, time 3 day): 13.1 g/dL
Ht (72 h, time 3 day): 39.8%
Lym (72 h, time 3 day): 82.6%
MCH (72 h, time 3 day): 21.3 pg
MCHC (72 h, time 3 day): 32.9%
MCV (72 h, time 3 day): 64.8 fL
Mono (72 h, time 3 day): 5.2%
Neu (72 h, time 3 day): 11.4%
PT (72 h, time 3 day): 11.6 s
Plat (72 h, time 3 day): 124.4 x10_4/uL
RBC (72 h, time 3 day): 614.6 x10_4/ul
Ret (72 h, time 3 day): 5.5%
WBC (72 h, time 3 day): 105.6 x10_2/uL
KIDNEY_L (72 h, time 3 day): 1.1 g
KIDNEY_R (72 h, time 3 day): 1.1 g
KIDNEY_TOTAL (72 h, time 3 day): 2.2 g
LIVER (72 h, time 3 day): 11.8 g
A/G (72 h, time 3 day): 2
ALP (72 h, time 3 day): 985.6 IU/L
ALT (72 h, time 3 day): 32.8 IU/L
AST (72 h, time 3 day): 63.2 IU/L
BUN (72 h, time 3 day): 20.2 mg/dL
CRE (72 h, time 3 day): 0.5 mg/dL
Ca (72 h, time 3 day): 10.9 mg/dL
Cl (72 h, time 3 day): 105.8 meq/L
DBIL (72 h, time 3 day): 0.028 mg/dL
GLC (72 h, time 3 day): 189.2 mg/dL
IP (72 h, time 3 day): 8 mg/dL
K (72 h, time 3 day): 5 meq/L
LDH (72 h, time 3 day): 90.6 IU/L
Na (72 h, time 3 day): 140.2 meq/L
PL (72 h, time 3 day): 160 mg/dL
RALB (72 h, time 3 day): 4 g/dL
TBIL (72 h, time 3 day): 0.3 mg/dL
TC (72 h, time 3 day): 81 mg/dL
TG (72 h, time 3 day): 93 mg/dL
TP (72 h, time 3 day): 6.1 g/dL
gamma-GTP (72 h, time 3 day): 2 IU/L
TERMINAL_BW ([…], time 7 day): 259.7 g
TERMINAL_BW ([…], time 14 day): 311.1 g
TERMINAL_BW ([…], time 28 day): 389.4 g
APTT ([…], time 7 day): 15.6 s
Bas ([…], time 7 day): 0%
Eos ([…], time 7 day): 0.6%
Fbg ([…], time 7 day): 232 mg/dL
Hb ([…], time 7 day): 13.5 g/dL
Ht ([…], time 7 day): 40.7%
Lym ([…], time 7 day): 84.6%
MCH ([…], time 7 day): 20.6 pg
MCHC ([…], time 7 day): 33.2%
MCV ([…], time 7 day): 61.9 fL
Mono ([…], time 7 day): 5%
Neu ([…], time 7 day): 9.2%
PT ([…], time 7 day): 11.6 s
Plat ([…], time 7 day): 124.1 x10_4/uL
RBC ([…], time 7 day): 658.4 x10_4/ul
Ret ([…], time 7 day): 4.8%
WBC ([…], time 7 day): 134.2 x10_2/uL
APTT ([…], time 14 day): 16.1 s
Bas ([…], time 14 day): 0%
Eos ([…], time 14 day): 1.2%
Fbg ([…], time 14 day): 247.4 mg/dL
Hb ([…], time 14 day): 14.3 g/dL
Ht ([…], time 14 day): 43%
Lym ([…], time 14 day): 76%
MCH ([…], time 14 day): 20.1 pg
MCHC ([…], time 14 day): 33.2%
MCV ([…], time 14 day): 60.7 fL
Mono ([…], time 14 day): 6.6%
Neu ([…], time 14 day): 16.2%
PT ([…], time 14 day): 11.3 s
Plat ([…], time 14 day): 118.7 x10_4/uL
RBC ([…], time 14 day): 710.6 x10_4/ul
Ret ([…], time 14 day): 3.5%
WBC ([…], time 14 day): 107.1 x10_2/uL
APTT ([…], time 28 day): 16.8 s
Bas ([…], time 28 day): 0%
Eos ([…], time 28 day): 1%
Fbg ([…], time 28 day): 252.6 mg/dL
Hb ([…], time 28 day): 15.1 g/dL
Ht ([…], time 28 day): 45.4%
Lym ([…], time 28 day): 85.6%
MCH ([…], time 28 day): 19.3 pg
MCHC ([…], time 28 day): 33.3%
MCV ([…], time 28 day): 58 fL
Mono ([…], time 28 day): 4.4%
Neu ([…], time 28 day): 8.8%
PT ([…], time 28 day): 11.6 s
Plat ([…], time 28 day): 108.6 x10_4/uL
RBC ([…], time 28 day): 782.8 x10_4/ul
Ret ([…], time 28 day): 3.5%
WBC ([…], time 28 day): 132.2 x10_2/uL
KIDNEY_L ([…], time 7 day): 1.1 g
KIDNEY_R ([…], time 7 day): 1.1 g
KIDNEY_TOTAL ([…], time 7 day): 2.3 g
KIDNEY_L ([…], time 14 day): 1.3 g
KIDNEY_R ([…], time 14 day): 1.3 g
KIDNEY_TOTAL ([…], time 14 day): 2.5 g
KIDNEY_L ([…], time 28 day): 1.5 g
KIDNEY_R ([…], time 28 day): 1.5 g
KIDNEY_TOTAL ([…], time 28 day): 3 g
LIVER ([…], time 7 day): 12.2 g
LIVER ([…], time 14 day): 13.6 g
LIVER ([…], time 28 day): 16.3 g
A/G ([…], time 7 day): 2.1
ALP ([…], time 7 day): 880.6 IU/L
ALT ([…], time 7 day): 32.6 IU/L
AST ([…], time 7 day): 61.8 IU/L
BUN ([…], time 7 day): 21.2 mg/dL
CRE ([…], time 7 day): 0.6 mg/dL
Ca ([…], time 7 day): 10.9 mg/dL
Cl ([…], time 7 day): 104 meq/L
DBIL ([…], time 7 day): 0.002 mg/dL
GLC ([…], time 7 day): 209.2 mg/dL
IP ([…], time 7 day): 8.6 mg/dL
K ([…], time 7 day): 5 meq/L
LDH ([…], time 7 day): 116.2 IU/L
Na ([…], time 7 day): 138 meq/L
PL ([…], time 7 day): 168.4 mg/dL
RALB ([…], time 7 day): 4 g/dL
TBIL ([…], time 7 day): 0.3 mg/dL
TC ([…], time 7 day): 88.8 mg/dL
TG ([…], time 7 day): 121.2 mg/dL
TP ([…], time 7 day): 5.9 g/dL
gamma-GTP ([…], time 7 day): 1 IU/L
A/G ([…], time 14 day): 1.8
ALP ([…], time 14 day): 821.6 IU/L
ALT ([…], time 14 day): 34.4 IU/L
AST ([…], time 14 day): 65.2 IU/L
BUN ([…], time 14 day): 24.4 mg/dL
CRE ([…], time 14 day): 0.6 mg/dL
Ca ([…], time 14 day): 10.8 mg/dL
Cl ([…], time 14 day): 106 meq/L
DBIL ([…], time 14 day): 0 mg/dL
GLC ([…], time 14 day): 199.2 mg/dL
IP ([…], time 14 day): 8.4 mg/dL
K ([…], time 14 day): 5 meq/L
LDH ([…], time 14 day): 105.2 IU/L
Na ([…], time 14 day): 138.4 meq/L
PL ([…], time 14 day): 155.4 mg/dL
RALB ([…], time 14 day): 4 g/dL
TBIL ([…], time 14 day): 0.3 mg/dL
TC ([…], time 14 day): 73.2 mg/dL
TG ([…], time 14 day): 113.2 mg/dL
TP ([…], time 14 day): 6.3 g/dL
gamma-GTP ([…], time 14 day): 1.4 IU/L
A/G ([…], time 28 day): 1.8
ALP ([…], time 28 day): 658.6 IU/L
ALT ([…], time 28 day): 31.6 IU/L
AST ([…], time 28 day): 61.4 IU/L
BUN ([…], time 28 day): 20.8 mg/dL
CRE ([…], time 28 day): 0.6 mg/dL
Ca ([…], time 28 day): 10.8 mg/dL
Cl ([…], time 28 day): 105.8 meq/L
DBIL ([…], time 28 day): 0.046 mg/dL
GLC ([…], time 28 day): 198.6 mg/dL
IP ([…], time 28 day): 7.3 mg/dL
K ([…], time 28 day): 4.8 meq/L
LDH ([…], time 28 day): 66.4 IU/L
Na ([…], time 28 day): 137.6 meq/L
PL ([…], time 28 day): 144.4 mg/dL
RALB ([…], time 28 day): 4.1 g/dL
TBIL ([…], time 28 day): 0.3 mg/dL
TC ([…], time 28 day): 69.2 mg/dL
TG ([…], time 28 day): 90.2 mg/dL
TP ([…], time 28 day): 6.4 g/dL
gamma-GTP ([…], time 28 day): 1.2 IU/L
